Source: PubChem BioAssay AID2060610 (Molecular Pharmacology Branch, DTP, NCI, 2025)
“And” between values parts separate entries of the source, which are not always exact repeats. Equal entries are not always repeated. Values belong to the compound of their own block, whether it stands above or below them.

Test system: 616215-338-R-J1-PDC complex spheroids, viability % test/control
Test: Anticancer human tumor 616215-338-R-J1-PDC patient-derived colon adenocarcinoma cell line growth inhibition [CLK]
Settings: for viability, T/C: stronger effect = lower value
Source text: A high-throughput screen of multi-cell type tumor spheroids was designed to identify active combinations of […] and targeted small molecules. Complex spheroids include a stromal component modeled by human endothelial cells (HUVEC) and fibroblasts modeled by human mesenchymal stem cells (MSCs). The concentration ranges selected for each drug and investigational agent were based upon clinically achievable concentrations if the clinical Cmax of the agent was known.
Compounds. The drugs and investigational agents: cirtuvivint (SM08502; NSC835563), CC-671 (NSC850746), vemurafenib (NSC761431), tapotoclax (NSC804041), sotorasib (NSC818433), adagrasib (NSC831453), MRTX-1133 (NSC836407), BAY2416964 (NSC825713), copanlisib (NSC816437), inavolisib (NSC800729), abemaciclib (NSC768073), osimertinib (NSC779217), entinostat (NSC756642), eltanexor (KPT-8602, NSC794443), venetoclax (NSC766270), ceralasertib (NSC777638), bortezomib (NSC756655), olaparib (NSC753686), talazoparib (NSC767125), alisertib (NSC759677), peposertib (NSC802822), gemcitabine (NSC613327), 5-fluorouracil (NSC19893), SN-38 (NSC673596), oxaliplatin (NSC266046), paclitaxel (NSC125973), and doxorubicin (NSC123127), were obtained from the National Cancer Institute (NCI) Developmental Therapeutics Program Chemical Repository. The FDA-approved anticancer drug set is available from the Developmental Therapeutics Program at https://dtp.cancer.gov/organization/dscb/obtaining/available plates.htm. […] The stock solutions were prepared in dimethyl sulfoxide (DMSO, Sigma-Aldrich, St. Louis, MO, cat. D2650), except for the platinum complexes which were prepared in saline (Quality Biological, Gaithersburg, MD, cat. 114-055-101), at 800-fold the tested concentration and stored at -70 degrees C prior to their use. All drugs and investigational agents were tested over a range starting from a high concentration at or near the clinical Cmax and decreasing in half-log increments. If the clinical Cmax for an agent had not been determined, the highest concentration tested was 10 microM.
Cell Culture. All cells were maintained in an incubator at 37 degrees C and 5% CO2 with 95% humidity. The PDC lines were cultured according to standard operating procedures established by the NCI PDMR. Briefly, all PDCs were thawed and cultured in Matrigel-coated flasks prepared with a working solution of 1X Ham's F-12 nutrient mix, without supplementation (Invitrogen, Waltham, MA, cat. 11765054), 100 U/mL penicillin-streptomycin (Invitrogen, cat. 15140122), and 2.5% Matrigel (Corning Inc., Corning, NY, cat. 354248) for the first three passages. The 947758-054-R-J2-PDC line was cultured in 6B/Colon 1A media, which includes advanced DMEM/F-12 (Thermo Fisher Scientific, cat. 12634028), 10 mM HEPES (Thermo Fisher Scientific, cat. 15630080), 1X GlutaMAX supplement (Thermo Fisher Scientific, cat. 35050061), 0.1 mg/mL primocin (InvivoGen, cat. ant-pm-2), 10% defined fetal bovine serum, heat inactivated (HyClone Laboratories Inc., cat. SH30070.03HI), 1.25 mM N-Acetyl-L-cysteine (Sigma-Aldrich, cat. A9165), 10 mM nicotinamide (Sigma-Aldrich, cat. N0636), 1X B-27 supplement (Thermo Fisher Scientific, cat. 17504044), 1X N-2 supplement (Thermo Fisher Scientific, cat. 17502048), and 10 microM Y-27632 dihydrochloride (Tocris Bioscience, cat. 1254). The 876862-298-R-J1-PDC was cultured in 6E media, which includes all 6B/Colon 1A media components plus 50% L-WRN conditioned media (ATCC, cat. CRL-3276), 50 ng/mL recombinant human EGF recombinant protein (hEGF; Thermo Fisher Scientific, cat. PHG0311), 10 ng/mL recombinant human fibroblast growth factor 10 (hGFG-10; PeproTech, cat. 100-26), 1 ng/mL recombinant human fibroblast growth factor 2 (hFGF-2; PeproTech, cat. 100-18B), and 1 µM prostaglandin E2 (PGE2; Tocris, cat. 2296). The 227483-062-R1-J1-PDC line was cultured in Panc media, containing all 6E components except hFGF-2, with the addition of 500 nM SB-431542 (Selleckchem, cat. S1067) and 10 nM gastrin (Tocris, cat. 3006). […]

[1] = curve of first compound, second compound 0.0316 µM
[2] = curve of first compound, second compound 0.1 µM
[3] = curve of first compound, second compound 0.316 µM
[4] = curve of first compound, second compound 1 µM
[5] = curve of first compound, second compound 3.16 µM
[6] = curve of first compound, second compound 10 µM
[7] = second compound 0.0316 µM, first compound 0.0316 µM
[8] = second compound 0.0316 µM, first compound 0.1 µM
[9] = second compound 0.0316 µM, first compound 0.316 µM
[10] = second compound 0.0316 µM, first compound 1 µM
[11] = second compound 0.0316 µM, first compound 3.16 µM
[12] = second compound 0.0316 µM, first compound 10 µM
[13] = second compound 0.1 µM, first compound 0.0316 µM
[14] = second compound 0.1 µM, first compound 0.1 µM
[15] = second compound 0.1 µM, first compound 0.316 µM
[16] = second compound 0.1 µM, first compound 1 µM
[17] = second compound 0.1 µM, first compound 3.16 µM
[18] = second compound 0.1 µM, first compound 10 µM
[19] = second compound 0.316 µM, first compound 0.0316 µM
[20] = second compound 0.316 µM, first compound 0.1 µM
[21] = second compound 0.316 µM, first compound 0.316 µM
[22] = second compound 0.316 µM, first compound 1 µM
[23] = second compound 0.316 µM, first compound 3.16 µM
[24] = second compound 0.316 µM, first compound 10 µM
[25] = second compound 1 µM, first compound 0.0316 µM
[26] = second compound 1 µM, first compound 0.1 µM
[27] = second compound 1 µM, first compound 0.316 µM
[28] = second compound 1 µM, first compound 1 µM
[29] = second compound 1 µM, first compound 3.16 µM
[30] = second compound 1 µM, first compound 10 µM
[31] = second compound 3.16 µM, first compound 0.0316 µM
[32] = second compound 3.16 µM, first compound 0.1 µM
[33] = second compound 3.16 µM, first compound 0.316 µM
[34] = second compound 3.16 µM, first compound 1 µM
[35] = second compound 3.16 µM, first compound 3.16 µM
[36] = second compound 3.16 µM, first compound 10 µM
[37] = second compound 10 µM, first compound 0.0316 µM
[38] = second compound 10 µM, first compound 0.1 µM
[39] = second compound 10 µM, first compound 0.316 µM
[40] = second compound 10 µM, first compound 1 µM
[41] = second compound 10 µM, first compound 3.16 µM
[42] = second compound 10 µM, first compound 10 µM
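Further: spheroids exposed to agents for 7 days.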
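Wherever viability, T/C is given: 100% = DMSO vehicle wells.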

IC50 [1]: 5780 nM
IC50 [2]: < 31.6 nM
IC50 [3]: < 31.6 nM
IC50 [4]: < 31.6 nM
IC50 [5]: < 31.6 nM
IC50 [6]: < 31.6 nM
SMILES: C=C(F)C(=O)N1CCN(c2nc(OCC3CCCN3C)nc3c2CCN(c2cccc4cccc(Cl)c24)C3)CC1CC#N (stereo not drawn) + CNC(=O)c1ccc(Nc2nc(OC3CCCC3)c3c(-c4ccc5nc(C)oc5c4)c[nH]c3n2)c(OC)c1
viability, T/C [7]: 95.2%
viability, T/C [8]: 96.9%
viability, T/C [9]: 90.9%
viability, T/C [10]: 104%
viability, T/C [11]: 106%
viability, T/C [12]: 5.6%
viability, T/C [13]: 46%
viability, T/C [14]: 38.4%
viability, T/C [15]: 47.9%
viability, T/C [16]: 46.2%
viability, T/C [17]: 44.9%
viability, T/C [18]: 1.3%
viability, T/C [19]: 48.4%
viability, T/C [20]: 45.2%
viability, T/C [21]: 46.6%
viability, T/C [22]: 40.4%
viability, T/C [23]: 42.1%
viability, T/C [24]: 1.18%
viability, T/C [25]: 49.8%
viability, T/C [26]: 50.5%
viability, T/C [27]: 47.5%
viability, T/C [28]: 42.1%
viability, T/C [29]: 30.7%
viability, T/C [30]: 0.72%
viability, T/C [31]: 42.7%
viability, T/C [32]: 49.1%
viability, T/C [33]: 41.2%
viability, T/C [34]: 31.5%
viability, T/C [35]: 20.8%
viability, T/C [36]: 0.22%
viability, T/C [37]: 45.3%
viability, T/C [38]: 43%
viability, T/C [39]: 42.8%
viability, T/C [40]: 33.2%
viability, T/C [41]: 16.4%
viability, T/C [42]: 0.29%

IC50 [1]: > 10000 nM
IC50 [2]: > 10000 nM
IC50 [3]: < 31.6 nM
IC50 [4]: < 31.6 nM
IC50 [5]: < 31.6 nM
IC50 [6]: < 31.6 nM
SMILES: O=C(c1cc(Cc2n[nH]c(=O)c3ccccc23)ccc1F)N1CCN(C(=O)C2CC2)CC1 + CNC(=O)c1ccc(Nc2nc(OC3CCCC3)c3c(-c4ccc5nc(C)oc5c4)c[nH]c3n2)c(OC)c1
viability, T/C [7]: 107%
viability, T/C [8]: 98.9%
viability, T/C [9]: 92.3%
viability, T/C [10]: 99.7%
viability, T/C [11]: 96.1%
viability, T/C [12]: 110%
viability, T/C [13]: 59%
viability, T/C [14]: 63.5%
viability, T/C [15]: 56%
viability, T/C [16]: 57.2%
viability, T/C [17]: 51.2%
viability, T/C [18]: 63.9%
viability, T/C [19]: 42.1%
viability, T/C [20]: 61.1%
viability, T/C [21]: 49.5%
viability, T/C [22]: 45.2%
viability, T/C [23]: 50%
viability, T/C [24]: 56.6%
viability, T/C [25]: 45.1%
viability, T/C [26]: 51.3%
viability, T/C [27]: 42.4%
viability, T/C [28]: 49.3%
viability, T/C [29]: 52.6%
viability, T/C [30]: 49.8%
viability, T/C [31]: 45.5%
viability, T/C [32]: 38.5%
viability, T/C [33]: 42.4%
viability, T/C [34]: 42.2%
viability, T/C [35]: 55.4%
viability, T/C [36]: 41.6%
viability, T/C [37]: 39.1%
viability, T/C [38]: 41.8%
viability, T/C [39]: 42.8%
viability, T/C [40]: 47.8%
viability, T/C [41]: 40.8%
viability, T/C [42]: 39.8%

IC50 (compound alone, run of 08/01/2023): 177 nM [middle of 12 runs]
SMILES: CNC(=O)c1ccc(Nc2nc(OC3CCCC3)c3c(-c4ccc5nc(C)oc5c4)c[nH]c3n2)c(OC)c1
viability, T/C (compound 0.0316 µM): 90.7% [middle of 12 runs]
viability, T/C (compound 0.1 µM): 55.7% [middle of 12 runs]
viability, T/C (compound 0.316 µM): 44.2% [middle of 12 runs]
viability, T/C (compound 1 µM): 45.1% [middle of 12 runs]
viability, T/C (compound 3.16 µM): 42.3% [middle of 12 runs]
viability, T/C (compound 10 µM): 40.3% [middle of 12 runs]

IC50 (curve of compound): > 10000 nM
SMILES: C#Cc1c(F)ccc2cc(O)cc(-c3ncc4c(N5CC6CCC(C5)N6)nc(OCC56CCCN5CC(F)C6)nc4c3F)c12 (stereo not drawn)
viability, T/C (compound 0.0316 µM): 95.4% and 102%
viability, T/C (compound 0.1 µM): 96.2% and 91.8%
viability, T/C (compound 0.316 µM): 100% and 104%
viability, T/C (compound 1 µM): 119% and 114%
viability, T/C (compound 3.16 µM): 133% and 98.2%
viability, T/C (compound 10 µM): 83.3% and 65.1%
